Where two headings read alike, the source gives them in different places.
Tests used:
[1] = Tissue distribution of [14C]radio-labeled tafenoquine in male rats; assay type: in vivo, rat; details: for concentration of tafenoquine in lung: 25 mg base/kg single oral dose
Description: FIG. 3: Concentration of tafenoquine in microgram equivalents per g of tissue in various tissues of male rats 12 h following administration of [14C]radio-labeled tafenoquine (25 mg base/kg). Radioactivity was measured in the combusted organs of euthanized rats by liquid scintillation analysis.
In this study, a single oral dose of [14C]radio-labeled tafenoquine (25 mg base/kg) was given to 60 male rats, and then groups of 5 animals were killed at time points ranging from 30 minutes to 120 hours post-dose. Radioactivity in the combusted organs of killed animals was measured by liquid scintillation analysis. When expressed as microgram equivalents tafenoquine per gram of tissue, the concentration of tafenoquine in lung were at 0.5, 1, 6, 12, 24, 48, 72, 96, and 120 hours post-administration were 1.21, 6.43, 133, 154, 136, 119, 83.7, 59.4, and 44.4, respectively.

[2] = female, rat, in vivo, 2 mg/kg
[3] = rat, in vivo, 125 mg/kg; cited from earlier work
[4] = Blood cell:plasma partitioning experiments; assay type: in vitro ADME, human; details: humans
[5] = system: Aspergillus fumigatus clinical isolate 293 (Af293); experiment: Prophylactic efficacy in Aspergillus-infected immunosuppressed mice; assay type: in vivo, ICR mice; details: 2.5 or 5.0 mg/kg/day oral from day -2 through day +7
[6] = system: RSV, MERS coronavirus and influenza A H1N1; assay type: cell-based
[7] = system: Emergomyces sp.; experiment: Antifungal MIC (RPMI-1640 microdilution); assay type: cell-based
[8] = system: Fusarium sp.; experiment: Antifungal MIC (RPMI-1640 microdilution); assay type: cell-based
[9] = system: Candida parapsilosis; experiment: Antifungal MIC (RPMI-1640 microdilution); assay type: cell-based; details: for MIC50 / MIC: Lodderomyces parapsilosis
[10] = system: Staphylococcus aureus; experiment: Antibacterial MIC (broth microdilution); assay type: cell-based
[11] = system: E. coli; experiment: Antibacterial MIC (broth microdilution); assay type: cell-based
Description: Growth Medium—Cation adjusted Mueller-Hinton broth was used as the test medium. Broth for panel preparation was prepared from commercial dehydrated medium (Difco formulation, BD Diagnostics, catalog number 275730).
Dilution of Investigational Agents—Polystyrene test tubes were used to prepare the drug dilutions and sterile U-shaped 96-well polystyrene microtiter trays were used for performing the MIC assays. Stock solutions of the investigational agents were prepared at concentrations 100-times the highest concentration to be tested (6400-1.25 μg/ml) using dimethyl sulfoxide. Aliquots of the stock solutions were dispensed into polypropylene vials and stored at −20° C. Further dilutions (1:50) were made in the culture medium (cation-adjusted Mueller-Hinton medium).
After the dilutions of the working 2-fold investigational antibacterial solutions were prepared, 50 μL of each concentration was transferred into rows of the first 10 wells of each 12-well column of the U-shaped disposable 96-well microtiter trays using a multichannel pipettor. The 11th well in each row served as the sterility control, and the 12th well contained only culture medium to serve as the growth control for each isolate. In like manner, the control drug for the organism being tested was prepared in a separate 96 well panel exactly as described above. A 50 μL volume of the standardized inoculum suspension of each test isolate was prepared in culture medium to directly inoculate each test well of the drug containing microtiter tray.
Inoculum Preparation—Colonies of each strain generated on sheep blood agar plates with overnight growth at 35° C. in ambient air were used to directly prepare a suspension equivalent in density to the 0.5 McFarland opacity standard. The exact turbidity of each suspension was determined using a desktop portable photometer. For panels containing 2× drug concentrations, a 1:100 dilution of the McFarland organism suspension was prepared in cation-adjusted Mueller-Hinton broth and 50 μL aliquots of each test (and control) strain was added to each well of the designated rows of the microtiter trays using a multichannel pipettor. The target inoculum concentration was 5×10^5 CFU/ml in each well.
Trays were removed and each well were inspected for evidence of growth (turbidity). The MIC was defined as the lowest concentration of the investigational agent and the control drug that prevents visibly discernible growth in the test wells.

[12] = system: Curvularia sp.; experiment: Antifungal MIC (RPMI-1640 microdilution); assay type: cell-based
[13] = system: P. aeruginosa; experiment: Antibacterial MIC (broth microdilution); assay type: cell-based; details: Pseudomonas aeruginosa
[14] = system: Blastomyces dermatitidis; experiment: Antifungal MIC (RPMI-1640 microdilution); assay type: cell-based
[15] = system: Cryptococcus neoformans; experiment: Antifungal MIC (RPMI-1640 microdilution); assay type: cell-based

Structure (SMILES): COc1cc(C)c2c(Oc3cccc(C(F)(F)F)c3)c(OC)cc(NC(C)CCCN)c2n1 (centres unmarked) [Tafenoquine, N(4)-[2,6-Dimethoxy-4-methyl-5-[3-(trifluoromethyl)phenoxy]quinolin-8-yl]pentane-1,4-diamine]
- concentration of tafenoquine in lung ([1]; 0.5 hours post-administration): 1.21 microgram equivalents tafenoquine per gram of tissue
- concentration of tafenoquine in lung ([1]; 1 hour): 6.43 microgram equivalents tafenoquine per gram of tissue
- concentration of tafenoquine in lung ([1]; 6 hours): 133 microgram equivalents tafenoquine per gram of tissue
- concentration of tafenoquine in lung ([1]; 12 hours): 154 microgram equivalents tafenoquine per gram of tissue
- concentration of tafenoquine in lung ([1]; 24 hours): 136 microgram equivalents tafenoquine per gram of tissue
- concentration of tafenoquine in lung ([1]; 48 hours): 119 microgram equivalents tafenoquine per gram of tissue
- concentration of tafenoquine in lung ([1]; 72 hours): 83.7 microgram equivalents tafenoquine per gram of tissue
- concentration of tafenoquine in lung ([1]; 96 hours): 59.4 microgram equivalents tafenoquine per gram of tissue
- concentration of tafenoquine in lung ([1]; 120 hours): 44.4 microgram equivalents tafenoquine per gram of tissue
- lung:blood concentration ratio ([1]; rat): 250
- ratio of lung:plasma concentrations ([1]; rat): ~650
- tissue accumulation ([1]; rat, FIG. 3): accumulate in lung more than any other tissue in the body
- Estimate of plasma concentration following a single dose of 2 mpk in rats [2]: 35.84 ng/mL
- Maximum plasma concentration following a single 125 mpk dose in female rats [3]: 2240 ng/mL
- ratio of the blood cell:plasma concentration [4]: 1.4
- pulmonary fungal burden [5]: dose-related, albeit non-statistically significant trend towards reduced fungal burden
- survival versus vehicle control ([5]; followed until day 12): no statistical differences in survival
- antiviral activity [6]: too cytotoxic to the cell lines used to determine whether antiviral activity was present

Structure (SMILES): COc1cc(C)c2c(Oc3cccc(C(F)(F)F)c3)c(OC)cc(NC(C)CCCN)c2n1.O=C(O)CCC(=O)O (centres unmarked) [Tafenoquine Succinate]
- MIC 100% inhibition ([7]; isolate Emerg3): 4 µg/mL
- MIC50 ([7]; read-out: MIC 50% inhibition, isolate Emerg2): 4 µg/mL
- MIC50 ([7]; read-out: MIC 50% inhibition, isolate Emerg3): 2 µg/mL
- MIC ([7]; read-out: MIC 100% inhibition, isolate Emerg2): 4 µg/mL
- MIC50 ([8]; read-out: MIC 50% inhibition, isolate FO1): 8 µg/mL
- MIC50 ([8]; read-out: MIC 50% inhibition, isolate FS2): 16 µg/mL
- MIC50 ([8]; read-out: MIC 50% inhibition, isolate FSI): 8 µg/mL
- MIC ([8]; read-out: MIC 100% inhibition, isolate FO1): 16 µg/mL
- MIC ([8]; read-out: MIC 100% inhibition, isolate FS2): 16 µg/mL
- MIC ([8]; read-out: MIC 100% inhibition, isolate FSI): 16 µg/mL
- MIC50 ([9]; ATCC22019, read-out: MIC 50% inhibition, isolate ATCC 22019): 4 µg/mL
- MIC ([9]; ATCC22019, read-out: MIC 100% inhibition, isolate ATCC 22019): 4 µg/mL
- MIC50 ([9]; read-out: MIC 50% inhibition, isolate CP1): 4 µg/mL
- MIC ([9]; read-out: MIC 100% inhibition, isolate CP1): 4 µg/mL
- MIC ([9]; read-out: MIC 100% inhibition, isolate CP2): 4 µg/mL
- MIC ([9]; read-out: MIC 100% inhibition, isolate CP3): 8 µg/mL
- MIC 50% inhibition ([9]; isolate CP2): 4 µg/mL
- MIC 50% inhibition ([9]; isolate CP3): 4 µg/mL
- MIC ([10]; Staphylococcus aureus, ATCC29213, isolate ATCC 29213, read-out: MIC): 8 µg/mL
- MIC ([10]; Staphylococcus aureus, isolate 6215, read-out: MIC): 8 µg/mL
- MIC ([10]; isolate 6229): 8 µg/mL
- MIC ([11]; Escherichia coli, ATCC25922, isolate ATCC 25922, read-out: MIC): > 64 µg/mL
- MIC ([11]; Escherichia coli, isolate J4243 (MO72), read-out: MIC): > 64 µg/mL
- MIC ([11]; isolate J4244 (JJ1886)): >64 µg/mL
- MIC50 ([12]; read-out: MIC 50% inhibition, isolate Curv1): 2 µg/mL
- MIC ([12]; read-out: MIC 100% inhibition, isolate Curv1): 8 µg/mL
- MIC ([13]; ATCC27853, isolate ATCC 27853): > 64 µg/mL
- MIC ([13]; isolate AR-230): > 64 µg/mL
- MIC ([13]; isolate J4242): > 64 µg/mL
- MIC50 ([14]; read-out: MIC 50% inhibition, isolate Blasto1): 1 µg/mL
- MIC50 ([14]; read-out: MIC 50% inhibition, isolate Blasto2): 4 µg/mL
- MIC50 ([14]; read-out: MIC 50% inhibition, isolate Blasto3): 8 µg/mL
- MIC ([14]; read-out: MIC 100% inhibition, isolate Blasto1): 2 µg/mL
- MIC ([14]; read-out: MIC 100% inhibition, isolate Blasto2): 4 µg/mL
- MIC ([14]; read-out: MIC 100% inhibition, isolate Blasto3): 8 µg/mL
- MIC50 ([15]; Cryptococcus neoformans, read-out: MIC 50% inhibition, isolate CN3): 4 µg/mL
- MIC50 ([15]; Cryptococcus neoformans, read-out: MIC 50% inhibition, isolate H99): 4 µg/mL
- MIC50 ([15]; Cryptococcus neoformans, read-out: MIC 50% inhibition, isolate USC1597): 4 µg/mL
- MIC ([15]; Cryptococcus neoformans, read-out: MIC 100% inhibition, isolate USC1597): 4 µg/mL
- MIC 100% inhibition ([15]; isolate CN3): 4 µg/mL
- MIC 100% inhibition ([15]; isolate H99): 4 µg/mL

— US12691107B2, “Methods for the treatment and prevention of lung infections caused by gram-positive bacteria, fungus, or virus by administration of tafenoquine” (priority 2020, dated 2026)
